From PMC3968527, “Dynamic mass redistribution analysis of endogenous β-adrenergic receptor signaling in neonatal rat cardiac fibroblasts” (Pharmacology Research & Perspectives, 2014)
Like-named read-outs stand apart in the source and are kept apart here.

Legend:
[1] = test system: endogenous βAR in primary neonatal rat cardiac fibroblasts (NRCF); assay: Dynamic mass redistribution (DMR) response to βAR ligands in NRCF; format: cell-based; details: for EC50: read-out: EC50 (DMR)
cAMP generation in NRCF = assay: FRET detection of cAMP generation using ICUE3 in NRCF; format: cell-based, rat; details: for effect on ISO-induced FRET (cAMP generation): antagonist 10 μmol/L, ISO 1 μmol/L
Description: ICUE3 adenovirus (Ad-ICUE3) was generously supplied by Dr. Yang Xiang (UC Davis). NRCF were seeded in the fibronectin-coated 10 mm glass-bottom insert of 35 mm dishes (MatTek Corporation, Ashland, MA) at 5 × 10^4 cells/10 mm insert and infected with Ad-ICUE3 at a multiplicity of infection (MOI) of 40 for 24 h with or without CTX addition (100 ng/mL overnight). 24 h after infection, the cells were rinsed and media replaced with imaging buffer, as previously described (Tilley et al. [2010]), prior to imaging using a Leica DMI4000B inverted microscope with a Leica DFC365 FX 1.4-megapixel monochrome digital camera with cyan fluorescent protein (CFP) excitation and CFP and yellow fluorescent protein (YFP) emissions measured every 2 sec. Cells were pretreated for 5 min with buffer or antagonists then, following 30 sec of baseline reads, the cells were stimulated with isoproterenol. The entire field-of view at 20× magnification was used to capture changes in fluorescence resonance energy transfer (FRET) in the NRCF population and each treatment condition was performed independently at least three times. Quantification of the ICUE3 ratio was calculated as changes in CFP emission/YFP emission over time, normalized to baseline.
EC50 and Emax values were attained via nonlinear regression curve fitting of the DMR, ICUE3, or EGFR internalization responses using Prism 5.0 software (GraphPad Software Inc.; San Diego, CA). Statistical analyses were performed using a one-way analysis of variance (ANOVA) followed by a Newman–Keuls multiple comparisons test or a two-tailed unpaired t-test, as appropriate. A value of P < 0.05 was considered statistically significant.

dynamin = test system: dynamin; set-up: method as in Kirchhausen et al. [2008]; details: known/reported IC50; ref Kirchhausen et al. [2008]; cited from earlier work
Flag-EGFR-mYFP = assay: EGFR internalization, on-cell western for loss of surface Flag-EGFR-mYFP in NRCF; format: cell-based, rat; details: Fig. 7C, 60 min treatment
Description: NRCF were seeded either in 35 mm glass-bottom dishes as described above or in clear-bottom black-walled 96-well plates (655090; Greiner Bio-One, Monroe, NC) at 3 × 10^4 cells/well and infected with Ad-Flag-EGFR-mYFP (constructed at Vector Biolabs, Philadelphia, PA) at an MOI of 200 for 24 h prior to stimulation with agonist as indicated. After 1 h, cells were fixed in 4% paraformaldehyde (163201145; Wako Chemicals, Richmond, VA) for 20 min, rinsed with phosphate-buffered saline (Corning/Cellgro, 21-030-CV) and on-cell western staining (nonpermeabolized) was performed using anti-Flag M2 antibody (1:1000, 3 h at RT, Sigma, F1804), IRDye® 800CW Conjugated Goat (polyclonal) Anti-mouse secondary antibody (1:1000, 1 h at RT, LI-COR, 926-32210) and DRAQ5 (1:5000, 1 h at RT, Cell Signaling Technology, #4084) following the LI-COR on-cell protocol. Flag and DRAQ5 signals were detected using Odyssey CLx infrared imaging system (LI-COR Biosciences, Lincoln, NE) and YFP signal was measured with a Tecan M1000 plate reader. Amount of EGFR internalization was calculated by normalizing the Flag signal to both the DRAQ5 (cell number control) and YFP (infection control) signals: Flag/DRAQ5/YFP. […] San Diego, CA). Statistical analyses were performed using a one-way analysis of variance (ANOVA) followed by a Newman–Keuls multiple comparisons test or a two-tailed unpaired t-test, as appropriate. […]

EGFR in NRCF = assay: EGFR-dependent DMR response to EGF in NRCF; format: cell-based, rat
[2] = antagonist 10 μmol/L, ISO 100 nmol/L
[3] = Rattus norvegicus, Cardiac fibroblast, agonist + buffer, 3-day-old NRCF
[4] = agonist + buffer, 3-day-old NRCF
[5] = agonist + cholera toxin (100 ng/mL)
[6] = βAR antagonist alone, positive-deflected DMR (inverse agonism)
[7] = agonist + propranolol (1 μmol/L)

Compound: Cn1cc(C(F)(F)F)nc1-c1ccc(OCC(O)CNCCOc2ccc(O)c(C(N)=O)c2)cc1 (stereo not shown) [CGP 20712A]
- DMR response of antagonist alone ([1]; 100 μmol/L, likely due to a toxic effect on the cells): extreme positive DMR deflection
- effect on ISO-mediated DMR effect [1, 2]: very small, though significant, decrease
- effect on ISO-induced FRET (cAMP generation) (cAMP generation in NRCF): partial blockade

Compound: CC(CCc1ccc(O)cc1)NCCc1ccc(O)c(O)c1 (stereo not shown) [Dobutamine]
- DMR responses in presence of Prop ([1]; Prop 1 μmol/L): completely blocked
- EC50 [1, 3]: 0.134 ± 0.0117 µM
- Emax (DMR) [1, 4]: −217.1 ± 3.5 pm
- Emax (DMR) [1, 5]: −86.0 ± 3.4 pm
- maximal DMR response, % of the ISO and Sal responses ([1]; at micromolar concentrations): ~75%
- EC50 [1, 5]: 0.05 ± 0.0168 µM

Compound: O=C(N/N=C/c1ccc(O)c(O)c1)c1cc2ccccc2cc1O [Dyn, dynasore]
- IC50 (dynamin): 15 µM
- effect on ISO-mediated DMR effect ([1]; Dyn pretreatment 100 μmol/L, 30 min): enhanced

Compound: COc1cc2ncnc(Nc3ccc(F)c(Cl)c3)c2cc1OCCCN1CCOCC1 [Gef, gefitinib]
- ISO-induced DMR response after pretreatment, % of the buffer-pretreated ISO response ([1]; ISO 100 nmol/L, CTX 100 ng/mL overnight, Gef 1 μmol/L): ~65%
- reduction of the ISO DMR response ([1]; ISO 100 nmol/L, CTX 100 ng/mL overnight, Gef 1 μmol/L, Fig. 7F): ~35%

Compound: Cc1ccc(OCC(O)C(C)NC(C)C)c2c1CCC2 (stereo not shown) [ICI 188,551, ICI 118,551]
- effect on ISO-mediated DMR effect [1, 2]: very significantly reduced
- Emax (DMR) [1, 6]: 117.3 ± 5.4 pm
- EC50 [1, 6]: 0.192 ± 0.0617 µM
- effect on ISO-induced FRET (cAMP generation) (cAMP generation in NRCF): significantly blocked

Compound: CC(C)NCC(O)c1ccc(O)c(O)c1 (stereo not shown) [Isoproterenol]
- Emax (DMR) ([1]; 8-day-old NRCF, Fig. 1D): −40 ± 5.3 pm
- ISO DMR response, % of the response attained with 2.5 × 10^4 cells ([1]; ISO 100 nmol/L, 1 × 10^4 cells per well): ~25%
- ISO DMR response, % of the response attained with 2.5 × 10^4 cells ([1]; ISO 100 nmol/L, 1.5 × 10^4 cells per well): ~50%
- EC50 [1, 3]: 0.0154 ± 0.0042 µM
- Emax (DMR) [1, 4]: −266.1 ± 8.2 pm
- Emax (DMR) [1, 5]: −109.6 ± 6.4 pm
- Emax (DMR) [1, 7]: −247.6 ± 4.3 pm
- EC50 [1, 7]: 0.809 ± 0.0841 µM
- EC50 [1, 5]: 0.0301 ± 0.0174 µM
- EC50 (cAMP generation in NRCF; Rattus norvegicus, Fig. 5B): 0.0074 ± 0.0056 µM
- EC50 (Flag-EGFR-mYFP): 0.0171 ± 0.0055 µM

Compound: CC(C)NCC(O)COc1cccc2ccccc12 (stereo not shown) [Propranolol, propranolol]
- effect on ISO-mediated DMR effect [1, 2]: very significantly reduced
- Emax (DMR) [1, 6]: 81.2 ± 2.5 pm
- effect on ISO-induced FRET (cAMP generation) (cAMP generation in NRCF): significantly blocked

Compound: COc1ccc(C2CNC(=O)C2)cc1OC1CCCC1 (stereo not shown) [Rol, rolipram]
- effect on ISO-mediated DMR response ([1]; Rol 10 nmol/L): significantly enhanced
- effect on ISO-mediated ICUE3 response (cAMP generation in NRCF; Rol 10 nmol/L): significantly enhanced

Compound: CC(C)(C)NCC(O)c1ccc(O)c(CO)c1 (stereo not shown) [Salbutamol, salbutamol]
- EC50 [1, 3]: 0.0156 ± 0.0008 µM
- Emax (DMR) [1, 4]: −257.1 ± 1.8 pm
- Emax (DMR) [1, 5]: −122.4 ± 2.1 pm
- Emax (DMR) [1, 7]: −251.9 ± 6.3 pm
- EC50 [1, 5]: 0.0301 ± 0.0049 µM

Compound: cholera toxin [CTX]
- ISO-induced DMR response after pretreatment, % of the buffer-pretreated ISO response [1]: ~35%
- reduction of the ISO DMR response [1]: ~65%
- effect on ISO-dependent cAMP generation (cAMP generation in NRCF): substantially reduced

Compound: epidermal growth factor [EGF]
- EC50 (EGFR in NRCF; Fig. S2D, read-out: EC50 (positive-deflected DMR)): < 0.001 µM
- EC50 (EGFR in NRCF; printed in picture of Fig. S2D, read-out: EC50 (peak DMR)): 0.00045 ± 3e-05 µM
